Data: ChEMBL document CHEMBL1132508, “N,N-dialkyl-dipeptidylamines as novel N-type calcium channel blockers” (Bioorg Med Chem Lett, 1999)
Square brackets hold non-standard residues; d marks the D form. Peptide text beside a SMILES is read from it. * marks the point of attachment. NMeL = CN[C@@H](CC(C)C)C(=O)O; Bz = O=C(c1ccccc1)*; NHtBu = CC(C)(C)N*

The compounds below were run on Mus musculus (assay: Ability to prevent the audiogenic seizure (tonic seizure phase) in DBA/2 mice (N = 5 mice/ dose tested) tested in vivo at a concentration of 3 mg/kg).
Assay type: functional

| Compound | Protection [%] |
| --- | --- |
| CC(C)CCN(C)[C@@H](CC(C)C)C(=O)N[C@@H](Cc1ccc(OC(=O)c2ccccc2)cc1)C(=O)NC(C)(C)C | 20 |
| CC(C)C[C@@H](C(=O)N[C@@H](Cc1ccc(OC(=O)c2ccccc2)cc1)C(=O)NC(C)(C)C)N(C)C1CCCCC1 | 20 |

Each compound was assayed on Mus musculus (assay: Ability to prevent the audiogenic seizure (tonic seizure phase) in DBA/2 mice (N = 5 mice/ dose tested) tested in vivo at a concentration of 100 mg/kg).
Assay type: functional

| Compound | Protection [%] |
| --- | --- |
| CC(C)C[C@@H](C(=O)N[C@@H](Cc1ccc(OC(=O)c2ccccc2)cc1)C(=O)NC(C)(C)C)N(C)C1CCCCC1 | 100 |

What follows are compounds tested on Mus musculus (assay: Ability to prevent the audiogenic seizure (tonic seizure phase) in DBA/2 mice (N = 5 mice/ dose tested) tested in vivo at a concentration of 10 mg/kg).
Assay type: functional

| Compound | Protection [%] |
| --- | --- |
| CC(C)C[C@@H](C(=O)N[C@@H](Cc1ccc(OC(=O)c2ccccc2)cc1)C(=O)NC(C)(C)C)N(C)CCC(C)O (some centres undefined) | 40 |
| CC(C)CCN(C)[C@@H](CC(C)C)C(=O)N[C@@H](Cc1ccc(OC(=O)c2ccccc2)cc1)C(=O)NC(C)(C)C | 80 |
| CC(C)C[C@@H](C(=O)N[C@@H](Cc1ccc(OC(=O)c2ccccc2)cc1)C(=O)NC(C)(C)C)N(C)CC1CCCCC1 | 20 |

The compounds below were run against Voltage-dependent N-type calcium channel subunit alpha-1B (Homo sapiens, UniProt Q00975) (assay: In vitro inhibitory activity against N-type calcium channel in the IMR-32 human neuroblastoma cells).
Voltage-dependent N-type calcium channel subunit alpha-1B, sequence (Q00975 whole entry): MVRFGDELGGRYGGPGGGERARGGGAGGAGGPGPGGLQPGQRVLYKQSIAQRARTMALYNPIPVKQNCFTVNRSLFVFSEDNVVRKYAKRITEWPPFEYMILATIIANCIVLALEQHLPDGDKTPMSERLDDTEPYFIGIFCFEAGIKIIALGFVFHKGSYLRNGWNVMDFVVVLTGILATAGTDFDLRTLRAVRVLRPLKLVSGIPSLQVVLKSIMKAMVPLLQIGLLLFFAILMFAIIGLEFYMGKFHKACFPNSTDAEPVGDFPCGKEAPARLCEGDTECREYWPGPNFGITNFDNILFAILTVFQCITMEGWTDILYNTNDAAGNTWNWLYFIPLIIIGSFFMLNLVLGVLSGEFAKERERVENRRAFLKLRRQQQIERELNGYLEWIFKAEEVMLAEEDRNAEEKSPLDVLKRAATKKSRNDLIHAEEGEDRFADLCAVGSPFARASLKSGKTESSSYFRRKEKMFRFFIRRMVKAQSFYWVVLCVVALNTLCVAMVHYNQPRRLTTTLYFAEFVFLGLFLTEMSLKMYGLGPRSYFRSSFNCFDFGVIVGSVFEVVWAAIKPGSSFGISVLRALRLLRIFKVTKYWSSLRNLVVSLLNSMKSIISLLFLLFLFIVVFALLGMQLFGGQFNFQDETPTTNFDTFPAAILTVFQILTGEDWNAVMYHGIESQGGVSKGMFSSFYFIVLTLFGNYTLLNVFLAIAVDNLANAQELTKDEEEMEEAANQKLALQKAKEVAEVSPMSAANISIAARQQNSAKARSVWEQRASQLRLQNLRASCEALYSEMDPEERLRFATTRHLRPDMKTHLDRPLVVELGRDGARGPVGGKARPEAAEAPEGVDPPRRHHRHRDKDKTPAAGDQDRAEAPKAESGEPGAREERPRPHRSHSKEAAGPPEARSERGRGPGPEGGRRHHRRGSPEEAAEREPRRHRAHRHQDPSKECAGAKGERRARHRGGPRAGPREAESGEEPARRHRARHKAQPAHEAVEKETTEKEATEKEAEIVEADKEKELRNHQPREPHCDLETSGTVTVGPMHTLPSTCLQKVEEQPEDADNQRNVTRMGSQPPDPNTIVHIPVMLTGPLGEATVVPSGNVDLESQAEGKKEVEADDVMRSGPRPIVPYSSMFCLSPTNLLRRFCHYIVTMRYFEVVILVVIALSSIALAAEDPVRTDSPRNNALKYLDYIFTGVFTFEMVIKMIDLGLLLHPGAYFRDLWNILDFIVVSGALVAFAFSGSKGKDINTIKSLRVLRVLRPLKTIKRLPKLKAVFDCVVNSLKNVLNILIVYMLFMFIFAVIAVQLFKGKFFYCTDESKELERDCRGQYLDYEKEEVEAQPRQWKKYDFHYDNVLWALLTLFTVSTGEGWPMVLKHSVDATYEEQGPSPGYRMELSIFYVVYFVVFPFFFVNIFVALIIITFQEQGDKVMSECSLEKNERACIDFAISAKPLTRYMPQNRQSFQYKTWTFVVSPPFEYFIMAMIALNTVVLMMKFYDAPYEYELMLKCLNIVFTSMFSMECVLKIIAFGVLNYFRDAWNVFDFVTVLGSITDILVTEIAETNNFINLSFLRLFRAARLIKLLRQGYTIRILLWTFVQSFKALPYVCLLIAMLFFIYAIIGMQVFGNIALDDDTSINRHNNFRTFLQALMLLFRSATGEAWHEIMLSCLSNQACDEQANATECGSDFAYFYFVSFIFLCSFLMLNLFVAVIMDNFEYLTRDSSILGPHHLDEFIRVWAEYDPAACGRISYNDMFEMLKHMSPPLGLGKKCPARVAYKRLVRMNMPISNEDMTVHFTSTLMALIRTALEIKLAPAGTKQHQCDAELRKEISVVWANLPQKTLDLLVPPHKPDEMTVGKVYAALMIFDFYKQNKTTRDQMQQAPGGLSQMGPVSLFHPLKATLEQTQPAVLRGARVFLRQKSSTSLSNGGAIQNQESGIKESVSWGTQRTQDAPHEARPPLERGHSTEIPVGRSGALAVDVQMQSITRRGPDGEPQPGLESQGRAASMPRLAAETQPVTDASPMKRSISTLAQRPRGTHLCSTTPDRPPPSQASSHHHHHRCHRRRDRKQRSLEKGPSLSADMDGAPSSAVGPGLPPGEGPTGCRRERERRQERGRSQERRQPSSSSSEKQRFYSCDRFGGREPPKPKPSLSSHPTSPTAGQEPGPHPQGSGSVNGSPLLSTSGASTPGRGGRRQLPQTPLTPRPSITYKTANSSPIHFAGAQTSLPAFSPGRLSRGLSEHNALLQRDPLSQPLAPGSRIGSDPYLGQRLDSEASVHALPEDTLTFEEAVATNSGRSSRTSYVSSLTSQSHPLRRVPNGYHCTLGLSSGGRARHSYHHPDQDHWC
Assay type: cell-based

| Compound | IC50 [nM] |
| --- | --- |
| CC(C)C[C@H](NC(=O)N1CCCCCC1)C(=O)N[C@@H](Cc1ccc(OC(=O)c2ccccc2)cc1)C(=O)OC(C)(C)C | 320 |
| CC(C)C[C@@H](C(=O)N[C@@H](Cc1ccc(OC(=O)c2ccccc2)cc1)C(=O)NC(C)(C)C)N(C)CCC(C)(C)C | 400 |
| CCOC(=O)CN(C)[C@@H](CC(C)C)C(=O)N[C@@H](Cc1ccc(OC(=O)c2ccccc2)cc1)C(=O)NC(C)(C)C | 4400 |
| CC(C)C[C@@H](C(=O)N[C@@H](Cc1ccc(OC(=O)c2ccccc2)cc1)C(=O)NC(C)(C)C)N1CCCCC1 | 1400 |
| CC(C)C[C@@H](C(=O)N[C@@H](Cc1ccc(OC(=O)c2ccccc2)cc1)C(=O)NC(C)(C)C)N1CCOCC1 | 6400 |
| CC(C)C[C@@H](C(=O)N[C@@H](Cc1ccc(OC(=O)c2ccccc2)cc1)C(=O)NC(C)(C)C)N(C)CCC(C)O (some centres undefined) | 2200 |
| CC(C)C[C@@H](C(=O)N[C@@H](Cc1ccc(OC(=O)c2ccccc2)cc1)C(=O)NC(C)(C)C)N(C)C1CCOCC1 | 3100 |
| CCCCN(C)[C@@H](CC(C)C)C(=O)N[C@@H](Cc1ccc(OC(=O)c2ccccc2)cc1)C(=O)NC(C)(C)C | 280 |
| CC(C)CCN(C)[C@@H](CC(C)C)C(=O)N[C@@H](Cc1ccc(OC(=O)c2ccccc2)cc1)C(=O)NC(C)(C)C | 320 |
| CC(C)C[C@H](NC(=O)N1CCCCCC1)C(=O)N[C@@H](Cc1ccc(OC(=O)c2ccccc2)cc1)C(=O)NC(C)(C)C | 590 |
| CCC(C)N(C)[C@@H](CC(C)C)C(=O)N[C@@H](Cc1ccc(OC(=O)c2ccccc2)cc1)C(=O)NC(C)(C)C (some centres undefined) | 1500 |
| CC(C)C[C@@H](C(=O)N[C@@H](Cc1ccc(OC(=O)c2ccccc2)cc1)C(=O)NC(C)(C)C)N(C)C(C)C | 2800 |
| CC(C)C[C@@H](C(=O)N[C@@H](Cc1ccc(OC(=O)c2ccccc2)cc1)C(=O)NC(C)(C)C)N(C)C | 2300 |
| CC(C)C[C@@H](C(=O)N[C@@H](Cc1ccc(OC(=O)c2ccccc2)cc1)C(=O)NC(C)(C)C)N(C)CC(C)C | 380 |
| CC(C)C[C@@H](C(=O)N[C@@H](Cc1ccc(OC(=O)c2ccccc2)cc1)C(=O)NC(C)(C)C)N(C)CC1CCCCC1 | 700 |
| CC(C)C[C@@H](C(=O)N[C@@H](Cc1ccc(OC(=O)c2ccccc2)cc1)C(=O)NC(C)(C)C)N(C)C1CCCCC1 | 200 |
| CC(C)C[C@H](N)C(=O)N[C@@H](Cc1ccc(OC(=O)c2ccccc2)cc1)C(=O)NC(C)(C)C (H-Leu-Tyr(Bz)-NHtBu) | 3800 |
| CN[C@@H](CC(C)C)C(=O)N[C@@H](Cc1ccc(OC(=O)c2ccccc2)cc1)C(=O)NC(C)(C)C (H-[NMeL]-Tyr(Bz)-NHtBu) | 2300 |
